Source: ChEMBL document CHEMBL3785042, “Discovery of MK-8831, A Novel Spiro-Proline Macrocycle as a Pan-Genotypic HCV-NS3/4a Protease Inhibitor” (ACS Med Chem Lett, 2016)

Legend:
Liver = test: Drug uptake in rat liver at 40 mg/kg/day; assay type: ADME, organism-based; conditions: in vivo, read-out: Drug uptake
[1] = Inhibition of HCV genotype 1b NS3/4A protease A156V mutant using Ac-C(Eu)DDMEEAbu[COO]ASK(QSY7)-amide as substrate preincubated for 30 mins followed by substrate addition measured after 2.5 hrs by TRF assay; set-up: species or system Hepatitis C virus subtype 1b
[2] = Inhibition of HCV genotype 3a full length NS3/4A protease using Ac-C(Eu)DDMEEAbu[COO]ASK(QSY7)-amide as substrate preincubated for 30 mins followed by substrate addition measured after 2.5 hrs by TRF assay; set-up: species or system Hepatitis C virus subtype 3a
Canis familiaris [3] = test: Toxicity in conscious telemetered dog assessed as effect on respiratory function; assay type: organism-based, Canis lupus familiaris; conditions: in vivo
Canis familiaris [4] = test: Toxicity in conscious telemetered dog assessed as effect on ECG parameters; assay type: organism-based, Canis lupus familiaris; conditions: in vivo
Canis familiaris [5] = test: Toxicity in conscious telemetered dog assessed as effect on heart rate; assay type: organism-based, Canis lupus familiaris; conditions: in vivo
Hepatitis C virus [6] = test: Antiviral activity against HCV genotype 2a infected in human HuH7 cells assessed as inhibition of viral replication after 72 hrs by RT-PCR method in presence of 100% normal human serum; assay type: functional, Hepacivirus hominis; conditions: Huh-7, 72 h
Rattus norvegicus [7] = test: Toxicity in rat at 40 mg/kg/day measured for 3 days of dosing; assay type: organism-based; conditions: in vivo, 72 h
Hepatitis C virus [8] = test: Antiviral activity against HCV genotype 1a infected in human HuH7 cells assessed as inhibition of viral replication after 72 hrs by RT-PCR method in presence of 100% normal human serum; assay type: functional, Hepacivirus hominis; conditions: subtype 1a, Huh-7, 72 h
[9] = AUC (0 to 24 hrs) in rat at 5 mg/kg, po; assay type: ADME, organism-based; set-up: dose 5 mg/kg, time < 24 hr, route oral; conditions: in vivo
[10] = biological target: Hepatitis C virus serine protease, NS3/NS4A (Hepatitis C virus, UniProt A3EZI9+D2K2A8, R155K); test: Inhibition of HCV genotype 1b NS3/4A protease R155K mutant using Ac-C(Eu)DDMEEAbu[COO]ASK(QSY7)-amide as substrate preincubated for 30 mins followed by substrate addition measured after 2.5 hrs by TRF assay; set-up: species or system Hepatitis C virus subtype 1b
Cytochrome P450 2C9 = Cytochrome P450 2C9 (Homo sapiens, UniProt P11712); test: Inhibition of CYP2C9 (unknown origin) up to 50 uM; assay type: ADME
Canis familiaris [11] = test: Toxicity in conscious telemetered dog assessed as effect on blood pressure; assay type: organism-based, Canis lupus familiaris; conditions: in vivo
Canis familiaris [12] = test: Toxicity in telemetered dog up to 40 mg/kg; assay type: organism-based, Canis lupus familiaris; conditions: in vivo
[13] = Inhibition of HCV genotype 1b NS3/4A protease D168Y mutant using Ac-C(Eu)DDMEEAbu[COO]ASK(QSY7)-amide as substrate preincubated for 30 mins followed by substrate addition measured after 2.5 hrs by TRF assay; set-up: species or system Hepatitis C virus subtype 1b
Hepatitis C virus [14] = test: Antiviral activity against HCV genotype 3a infected in human HuH7 cells assessed as inhibition of viral replication after 72 hrs by RT-PCR method in presence of 100% normal human serum; assay type: functional, Hepacivirus hominis; conditions: Huh-7, 72 h
Rattus norvegicus [15] = test: Toxicity in telemetered rat up to 40 mg/kg; assay type: organism-based; conditions: in vivo
[16] = Inhibition of HCV genotype 1b NS3/4A protease A156T mutant using Ac-C(Eu)DDMEEAbu[COO]ASK(QSY7)-amide as substrate preincubated for 30 mins followed by substrate addition measured after 2.5 hrs by TRF assay; set-up: species or system Hepatitis C virus subtype 1b
Hepatitis C virus [17] = test: Antiviral activity against HCV genotype 2a infected in human HuH7 cells assessed as inhibition of viral replication after 72 hrs by RT-PCR method; assay type: functional, organism-based, Hepacivirus hominis; conditions: Huh-7, 72 h
[18] = Oral bioavailability in rat at 5 mg/kg; assay type: ADME, organism-based; conditions: in vivo
Cytochrome P450 2C8 = biological target: T1, Cytochrome P450 2C8 (Homo sapiens, UniProt P10632); test: Inhibition of CYP2C8 (unknown origin) up to 20 uM; assay type: ADME
T1 sequence (P10632 whole entry): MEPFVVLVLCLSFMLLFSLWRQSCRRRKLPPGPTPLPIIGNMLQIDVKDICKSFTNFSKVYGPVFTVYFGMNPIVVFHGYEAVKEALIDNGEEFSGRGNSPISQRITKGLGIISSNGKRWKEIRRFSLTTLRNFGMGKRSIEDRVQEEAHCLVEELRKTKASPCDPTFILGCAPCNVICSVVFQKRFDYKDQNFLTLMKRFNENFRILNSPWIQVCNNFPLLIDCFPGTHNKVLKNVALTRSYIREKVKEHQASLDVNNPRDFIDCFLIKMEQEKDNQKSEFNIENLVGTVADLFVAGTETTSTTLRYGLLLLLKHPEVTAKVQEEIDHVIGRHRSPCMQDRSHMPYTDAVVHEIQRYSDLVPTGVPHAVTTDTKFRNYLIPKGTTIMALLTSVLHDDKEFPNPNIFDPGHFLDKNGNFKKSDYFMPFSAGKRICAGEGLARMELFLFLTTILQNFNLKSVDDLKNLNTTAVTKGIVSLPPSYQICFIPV

Cytochrome P450 2D6 = Cytochrome P450 2D6 (Homo sapiens, UniProt P10635); test: Inhibition of CYP2D6 (unknown origin) up to 50 uM; assay type: ADME
[19] = Inhibition of HCV genotype 1b full length NS3/4A protease using Ac-C(Eu)DDMEEAbu[COO]ASK(QSY7)-amide as substrate preincubated for 30 mins followed by substrate addition measured after 2.5 hrs by TRF assay; set-up: species or system Hepatitis C virus subtype 1b
Hepatitis C virus [20] = test: Antiviral activity against HCV genotype 1a infected in human HuH7 cells assessed as inhibition of viral replication after 72 hrs by RT-PCR method; assay type: functional, organism-based, Hepacivirus hominis; conditions: subtype 1a, Huh-7, 72 h
Rattus norvegicus [21] = species: Rattus norvegicus; test: Protein binding in rat; assay type: ADME, organism-based; conditions: in vivo
Hepatitis C virus [22] = test: Antiviral activity against HCV genotype 1b infected in human HuH7 cells assessed as inhibition of viral replication after 72 hrs by RT-PCR method in presence of 100% normal human serum; assay type: functional, Hepacivirus hominis; conditions: Huh-7, 72 h
Cytochrome P450 3A4 = Cytochrome P450 3A4 (Homo sapiens, UniProt P08684); test: Inhibition of CYP3A4 (unknown origin) up to 50 uM; assay type: ADME
Canis familiaris [23] = species: Canis familiaris; test: Protein binding in dog; assay type: ADME, organism-based, Canis lupus familiaris; conditions: in vivo
Rattus norvegicus [24] = test: Hepatotoxicity in rat at 134 uM measured for 3 days of dosing; assay type: toxicity, organism-based; conditions: in vivo, 72 h
Salmonella typhimurium = test: Mutagenicity in Salmonella typhimurium by Ames test; assay type: toxicity, organism-based; conditions: salmonella enterica subsp. enterica serovar typhimurium
Hepatitis C virus [25] = test: Antiviral activity against HCV genotype 1b infected in human HuH7 cells assessed as inhibition of viral replication after 72 hrs by RT-PCR method; assay type: functional, organism-based, Hepacivirus hominis; conditions: Huh-7, 72 h
Canis familiaris [26] = test: Toxicity in conscious telemetered dog assessed as effect on body temperature; assay type: organism-based, Canis lupus familiaris; conditions: in vivo
[27] = Inhibition of HCV genotype 1a NS3/4A protease using Ac-C(Eu)DDMEEAbu[COO]ASK(QSY7)-amide as substrate preincubated for 30 mins followed by substrate addition measured after 2.5 hrs by TRF assay; set-up: species or system Hepatitis C virus subtype 1a
Hepatitis C virus [28] = test: Antiviral activity against HCV genotype 3a infected in human HuH7 cells assessed as inhibition of viral replication after 72 hrs by RT-PCR method; assay type: functional, organism-based, Hepacivirus hominis; conditions: Huh-7, 72 h
[29] = Oral bioavailability in dog at 1 mg/kg; assay type: ADME, organism-based, Canis lupus familiaris; conditions: in vivo
Hepatitis C virus [30] = test: Antiviral activity against HCV genotype 2b infected in human HuH7 cells assessed as inhibition of viral replication after 72 hrs by RT-PCR method; assay type: functional, organism-based, Hepacivirus hominis; conditions: Huh-7, 72 h

COc1ccc2nc(C(F)(F)F)c3c(c2c1)CC[C@]1(C[C@H]2C(=O)N[C@]4(C(=O)NS(=O)(=O)C5(C)CC5)C[C@H]4/C=C\CCCCC[C@H](NC(=O)OCC(C)C)C(=O)N2C1)O3
concentration (Liver): 134 µM | IC50 [1]: 2.76 nM | IC50 [2]: 0.41 nM | Activity (Canis familiaris [3]): Non-toxic | Activity (Canis familiaris [4]): Non-toxic | Activity (Canis familiaris [5]): Non-toxic | EC90 (Hepatitis C virus [6]): 60 nM | Activity (Rattus norvegicus [7]): Non-toxic | EC90 (Hepatitis C virus [8]): 68 nM | AUC(0-t) at 24 h [9]: 9 µM·h | IC50 [10]: 0.01 nM | inhibition (INH) (Cytochrome P450 2C9): Not Active | Activity (Canis familiaris [11]): Non-toxic | Activity (Canis familiaris [12]): Non-toxic | IC50 [13]: 0.023 nM | EC90 (Hepatitis C virus [14]): 90 nM | Activity (Rattus norvegicus [15]): Non-toxic | IC50 [16]: 0.483 nM | EC50 (Hepatitis C virus [17]): 0.9 nM | bioavailability [18]: 31% | inhibition (INH) (Cytochrome P450 2C8): Not Active | inhibition (INH) (Cytochrome P450 2D6): Not Active | IC50 [19]: 0.004 nM | EC50 (Hepatitis C virus [20]): 0.7 nM | PB (Rattus norvegicus [21]): Active | EC90 (Hepatitis C virus [22]): 20 nM | inhibition (INH) (Cytochrome P450 3A4): Not Active | PB (Canis familiaris [23]): Active | Activity (Rattus norvegicus [24]): Non-toxic | Activity (Salmonella typhimurium): Non-toxic | EC50 (Hepatitis C virus [25]): 0.8 nM | Activity (Canis familiaris [26]): Non-toxic | IC50 [27]: 0.009 nM | EC50 (Hepatitis C virus [28]): 1.7 nM | bioavailability [29]: 17% | EC50 (Hepatitis C virus [30]): 3.4 nM
